Assays:
ERα [1] = experiment: MNAR effect on ER-mediated transcription, 2xERE-tk-luciferase reporter in HepG2 cells; type: cell-based; details: for MNAR stimulation of ER activity with ligand / effect of kinase inhibitor on MNAR stimulation of ER activity / effect of Src inhibitor on MNAR stimulation of E2 induced ERα activity: HepG2, ERα and MNAR; for MNAR stimulation of ER activity with ligand: ligand at 10 nM; for effect of kinase inhibitor on MNAR stimulation of ER activity: 10 nM E2 plus 1 μM inhibitor; for effect of Src inhibitor on MNAR stimulation of E2 induced ERα activity: treated for 24 hr with 17β-estradiol and inhibitor
Method: Transient Transfection Analysis: HepG2 and COS-7 cells were routinely maintained in DMEM supplemented with 10% FBS. Either 50,000 cells per well of HepG2 or 30,000 per well of COS-7 were seeded in 96 well plates in DMEM without phenol red supplemented with 10% charcoal stripped serum. 100 ng of 2×ERE-tk-Luc reporter, 10 ng of pCMV-O-gal internal control, either 1 ng of pcDNA3.1 ERα or 5 ng of pcDNA3.1 ERβ expression vector with or without increasing amount of pcDNA3.1 MNAR or pcDNA3.1 SRC3 expression plasmids were transfected using 0.5 ul of lipofectamine 2000 (Life Technologies, Rockville, Md.) according to protocol. Cells were stimulated either with 10^−8M 17-b-estradiol, tamoxifen, or ICI for 24 hr before being processed for luciferase and β-Galactosidase activity.
(§1) A—HepG2 cells were transfected with expression plasmids for ERα, MNAR and/or SRC3. […] B—HepG2 cells were transfected with expression vectors for ERαand MNAR. […] (SEQ ID NO: 11) from Sequitur, Inc. (Natick, Mass.) or reverse control (C) oligomers complexed with 1 μg/ml of Lipofectamine 2000 in white media.
To evaluate if MNAR overexpression affects transcriptional activity of ER, HepG2 cells were transiently cotransfected with plasmids for expression of ERα and MNAR.

ERα [2] = tested on: ERα
Method: MNAR-Nuclear receptors interaction analysis was performed. […] Formed complexes were isolated using anti-FLAG sepharose beads, boiled in 2×SDS buffer and loaded on SDS gel.
With full-length flag-MNAR, we further evaluated whether MNAR interaction with estrogen receptors is affected by ER ligands. […] Formed complexes were isolated using anti-FLAG sepharose beads.

cSrc [3] = details: ERα with MNAR and cSrc, 1 μM E2, compared to unliganded ERα
Source text: ER-MNAR-cSrc Interaction Analysis. […] Formed complexes were isolate by pulled-down with anti-cSrc or anti-Lck antibodies and protein A agarose, boiled in 2×SDS buffer and resolved on an SDS-PAGE gel. Gel was dried and subjected to autoradiography.
To address this question, we have used in vitro transcribed/translated estrogen receptors ERα, ERβ and MNAR. […] Formed complexes were pulled-down with anti-cSrc or anti-Lck antibodies and protein A sepharose and then resolved on an SDS gel.

cSrc [4] = experiment: Kinase reaction on immunoprecipitates from MCF-7 cells ([32P]γATP); type: cell-based, human; details: material coprecipitated with anti-Src and anti-ER antibodies from MCF-7 cells, E2 10 nM 5 minutes
Method: FLAG-MNAR (panel A), cSrc (panel B), or ERα (panels C, D and E) were immunoprecipitated from the cell extracts using corresponding antibodies. Immunoprecipitates were incubated with [32P]γATP for 30 minutes at 30° C. (panels A-C), or with [32P]-γATP and enolase (panel D). Kinase reaction was stopped by boiling in 2×SDS buffer. Phosphorylated material was loaded on SDS gel, which was then dried and subjected to autoradiography.
We evaluated whether MNAR and ER interacted and activated Src kinase in MCF-7 cells. […] Flag-MNAR (FIG. 10, panel A), ERα (FIG. 10, panel C and D), and csrc (FIG. 10, panel B) were immunoprecipitated from the cell extracts using their corresponding antibodies. […] Immunoprecipitates were incubated with [32P]γATP at 30° C. for 30 minutes. Reaction was stopped by boiling in 2×SDS buffer and resolved on a SDS PMG.

Erk 1 and 2 = experiment: E2 induced Erk kinase 1 and 2 activation in MCF7 cells (Western blotting); type: cell-based, human; details: for level of total Erk 1 and 2: Erk1/2 antibodies; for effect on E2 induced Erk 1 and 2 activation: MCF7 cells overexpressing MNAR or treated with 100 nM antisense, 10 nM E2 5 minutes
Source text: (§2) It has been previously reported that activation of Src by estradiol triggers Ras/Erks kinase pathway. We expected that MNAR induced Src activation may lead to activation of Erk kinases 1 and 2. […] MNAR antisense oligonucleotide (SEQ ID NO:11) was developed at Sequitur Inc. (Natick, Mass.).

MNAR = MNAR expression in MCF-7 cells (TaqMan, Western blotting); type: cell-based, human
Method: as §1, with “MNAR. […] C—MCF-7 cells were transfected with 100 nM antisense (AS)” for “MNAR.”, “media. […] MNAR antiserum was generated against […] peptide encoding amino acids 509-520 ([…]) (SEQ ID NO: 31) of the MNAR.” for “media.”
as §2
(§3) We next used an antisense approach to assess MNAR's role in estrogen regulation of gene transcription. […] MCF-7 cells were transfected with 100 nM antisense or reverse control oligomers. […] TaqMan analysis was performed using a primer/probe set designed to target MNAR, pS2 and Cathepsin D—two genes known to be regulated by estrogens in MCF-7 cells. FIG. 9C presents the levels of MNAR, pS2 and Cathepsin D mRNA expression, normalized to GAPDH mRNA.

pS2 = experiment: ER-mediated gene expression in MCF-7 cells (TaqMan); type: cell-based, human; details: 100 nM antisense
Method: as §1, with “MNAR. […] C—MCF-7 cells were transfected with 100 nM antisense (AS)” for “MNAR.”, “media. […] MNAR antiserum was generated against […] peptide encoding amino acids 509-520 ([…]) (SEQ ID NO: 31) of the MNAR.” for “media.”
as §3

Cathepsin D = experiment: as above; type: cell-based, human; details: 100 nM antisense
Method: as §1, with “MNAR. […] C—MCF-7 cells were transfected with 100 nM antisense (AS)” for “MNAR.”, “media. […] MNAR antiserum was generated against […] peptide encoding amino acids 509-520 ([…]) (SEQ ID NO: 31) of the MNAR.” for “media.”
as §3

cSrc [5] = experiment: Analysis of cSrc enzymatic activity with acidified enolase as substrate; type: biochemical; details: acid denatured enolase as substrate
Method: Analysis of cSrc Enzymatic Activity. […] Before reaction proteins were incubated for 1 hr at 4° C. Phosporylation reaction was started by addition of [32P]-γATP and continued at 30° C. for 10 min. Reaction was stopped by addition of 2×SDS buffer. Phosphorylated proteins were separated by SDS-PAGE and the dried gel was subjected to autoradiography.

ER = experiment: MNAR structural-functional analysis, ER-stimulated transcription in HepG2 cells; type: cell-based; details: MNAR deletion mutants transfected into HepG2 cells
Method: To delineate the regions of MNAR that are responsible for interaction with estrogen receptor and c-Src tyrosine kinase, we performed functional evaluation of MNAR deletion mutants (FIG. 12). A series of C-terminal truncations of MNAR was generated using specially designed oligonucleotides, by amplifying appropriate fragments and cloning them into appropriate expression vectors. These mutants were tested for their abilities to enhance ER-stimulated transcription when transfected into HepG2 cells.
At the C-terminus, MNAR contains a region rich in both proline and glutamic acid. To delineate the regions on MNAR responsible for interaction with estrogen receptors and c-src tyrosine kinase, a functional evaluation of MNAR deletion mutants was performed (FIG. 12). A series of C-terminal truncations of MNAR was generated using specially designed oligonucleotides, by amplifying appropriate fragments and cloning them into appropriate expression vectors. These mutants were tested for their abilities to enhance ER-stimulated transcription when transfected into HepG2 cells.

## CC/C(=C(\c1ccc(O)cc1)c1ccc(OCCN(C)C)cc1)c1ccccc1 [4(OH) tamoxifen]
ERα [1]
  MNAR stimulation of ER activity with ligand: do not support MNAR stimulation of ER activity
ERα [2]
  ERα interaction with MNAR: inhibited

## C[C@]12CC[C@@H]3c4ccc(O)cc4CC[C@H]3[C@@H]1CC[C@@H]2O [E2, 17β-estradiol, reference compound]
cSrc [3]
  Src-ER-MNAR complex formation: significant stimulation
cSrc [4]
  phosphorylation of endogenous protein of approximately 34 kDa: stimulated
Erk 1 and 2; MCF7 cells, 10 nM E2 for 5 minutes
  Erk 1 and 2 phosphorylation: Strong E2 induced stimulation
Erk 1 and 2; MCF7 cells
  level of total Erk 1 and 2: Neither treatment with MNAR antisense oligonucleotides nor short treatment with E2 affected
MNAR; MCF-7 cells, 10 nM E2 24 hours, normalized to GAPDH mRNA
  MNAR mRNA expression: substantially stimulated

## C[C@]12CC[C@@H]3c4ccc(O)cc4C[C@@H](CCCCCCCCC[S+]([O-])CCCC(F)(F)C(F)(F)F)[C@H]3[C@@H]1CC[C@@H]2O (stereo partly drawn) [ICI 182,780]
ERα [1]
  MNAR stimulation of ER activity with ligand: do not support MNAR stimulation of ER activity

## COc1cccc(-c2cc(=O)c3ccccc3o2)c1N [PD98059]
ERα [1]
  effect of kinase inhibitor on MNAR stimulation of ER activity: abrogate MNAR stimulation of ER activity

## CC(C)(C)n1nc(-c2ccc(Cl)cc2)c2c(N)ncnc21 [PP2]
ERα [1]
  effect of kinase inhibitor on MNAR stimulation of ER activity: abrogate MNAR stimulation of ER activity
  effect of Src inhibitor on MNAR stimulation of E2 induced ERα activity: inhibited MNAR stimulation

## O=c1c(-c2ccc(O)cc2)coc2cc(O)cc(O)c12 [genesteine, genistein]
ERα [1]
  effect of Src inhibitor on MNAR stimulation of E2 induced ERα activity: inhibited MNAR stimulation

## MNAR antisense oligonucleotides: antisense (AS) CATGGAGATGTCCCGGAACAGTGCA (SEQ ID NO: 11) from Sequitur, Inc., targets MNAR (listed as DNA, chemistry not given here; listed as Homo sapiens)
pS2
  basal level of pS2 expression: did not significantly affect
pS2; 10 nM E2
  E2-stimulated pS2 expression: dramatic reduction
Cathepsin D
  basal level of Cathepsin D expression: did not significantly affect
Cathepsin D; 10 nM E2
  E2-stimulated Cathepsin D expression: dramatic reduction
Erk 1 and 2
  effect on E2 induced Erk 1 and 2 activation: attenuated
Erk 1 and 2; MCF7 cells
  level of total Erk 1 and 2: Neither treatment with MNAR antisense oligonucleotides nor short treatment with E2 affected
MNAR; MCF7 cells, 100 nM antisense, Western blotting with MNAR antibodies
  MNAR level: attenuated
MNAR; MCF-7 cells, 100 nM antisense, TaqMan and Western Blotting
  MNAR expression: significantly inhibited

## MNAR: novel ER interacting protein, 1130 amino acids, cloned from MCF-7 cells
ERα [1]; HepG2 cells transfected with expression plasmid, 2xERE-tk-reporter
  ERα transcriptional activity on overexpression: stimulation of ERα transcriptional activity
cSrc [4]
  phosphorylation of endogenous protein of approximately 34 kDa: dramatically augmented
cSrc [5]
  cSrc enzymatic activity: strongly stimulates
Erk 1 and 2
  effect on E2 induced Erk 1 and 2 activation: significantly enhanced

## mutant 2: MNAR mutant containing aa 1-469
ER
  ability to enhance ER-stimulated transcription: still able to augment ER transcriptional activity

## mutant 3: MNAR mutant containing aa 1-278
ER
  ability to enhance ER-stimulated transcription: still able to augment ER transcriptional activity

## mutant 4: MNAR mutant containing aa 1-189
ER
  ability to enhance ER-stimulated transcription: still able to augment ER transcriptional activity
